In one data set the target is T1, 5-lipoxygenase (LO) (Bos taurus, UniProt F1MQ78).
T1 construct: endogenous in cells
T1 sequence (F1MQ78 1-674): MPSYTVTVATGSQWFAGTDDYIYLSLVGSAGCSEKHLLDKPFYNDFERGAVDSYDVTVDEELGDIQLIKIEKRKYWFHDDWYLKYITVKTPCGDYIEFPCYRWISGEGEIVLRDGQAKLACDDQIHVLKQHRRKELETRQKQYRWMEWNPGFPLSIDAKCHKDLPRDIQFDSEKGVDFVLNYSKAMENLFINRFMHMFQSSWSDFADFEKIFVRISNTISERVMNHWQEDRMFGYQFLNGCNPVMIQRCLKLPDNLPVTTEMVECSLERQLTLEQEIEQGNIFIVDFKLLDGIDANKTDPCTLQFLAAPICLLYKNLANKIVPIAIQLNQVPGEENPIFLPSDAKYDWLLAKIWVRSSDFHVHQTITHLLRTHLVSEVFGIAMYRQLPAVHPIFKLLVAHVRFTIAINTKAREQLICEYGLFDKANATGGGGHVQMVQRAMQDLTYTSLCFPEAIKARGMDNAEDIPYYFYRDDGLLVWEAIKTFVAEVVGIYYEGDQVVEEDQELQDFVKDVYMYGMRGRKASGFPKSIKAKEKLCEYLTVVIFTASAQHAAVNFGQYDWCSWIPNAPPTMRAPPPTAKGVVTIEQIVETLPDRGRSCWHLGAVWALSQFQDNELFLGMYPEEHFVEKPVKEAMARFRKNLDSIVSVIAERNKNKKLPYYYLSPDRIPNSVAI
The data set can be described thus: Inhibition of the enzyme 5-lipoxygenase (LO). It counts as biochemical. Conditions: first figure of cell 'LO/CO'; decimal comma; concentration unit inferred; read-out: 7) IC50 LO. The source says:
(§1) 7) IC50 /LO/CO: Inhibition of the enzyme cyclooxygenase (CO) and 5-lipoxygenase (LO), Dannhardt et al., J. Pharm. Pharmacol. 1992, 44:419-424.

The next data set addresses T2, cyclooxygenase (CO) (Bos taurus, UniProt O62664).
T2 construct: endogenous in cells
T2 sequence (O62664 25-600): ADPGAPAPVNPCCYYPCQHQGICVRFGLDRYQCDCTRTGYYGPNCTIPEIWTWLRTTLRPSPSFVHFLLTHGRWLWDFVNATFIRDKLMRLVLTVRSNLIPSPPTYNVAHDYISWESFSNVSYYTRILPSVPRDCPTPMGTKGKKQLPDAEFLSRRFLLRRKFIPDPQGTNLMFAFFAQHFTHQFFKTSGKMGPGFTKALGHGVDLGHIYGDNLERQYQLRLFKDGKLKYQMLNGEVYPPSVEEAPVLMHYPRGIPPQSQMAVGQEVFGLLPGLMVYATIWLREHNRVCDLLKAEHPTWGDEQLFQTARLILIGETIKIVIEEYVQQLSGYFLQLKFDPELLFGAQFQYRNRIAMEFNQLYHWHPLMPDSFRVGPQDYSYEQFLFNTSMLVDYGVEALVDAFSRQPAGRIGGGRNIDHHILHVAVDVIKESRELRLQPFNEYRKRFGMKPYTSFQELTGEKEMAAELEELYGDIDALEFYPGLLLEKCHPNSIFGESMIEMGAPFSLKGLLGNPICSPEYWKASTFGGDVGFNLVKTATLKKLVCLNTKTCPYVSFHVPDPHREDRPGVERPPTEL
The data set can be described thus: Inhibition of the enzyme cyclooxygenase (CO). It counts as biochemical. Conditions: second figure of cell 'LO/CO'; decimal comma; concentration unit inferred; read-out: 7) IC50 CO.
Description: as §1

Take `CC1(C)Cc2c(-c3ccccc3)c(-c3ccc(Cl)cc3)c(CC(=O)O)n2C1` [6-(4-chlorophenyl)-2,2-dimethyl-7-phenyl-2,3-dihydro-1H-pyrrolizin-5-yl acetic acid]: the degraded at 24 h in the data set “physchem” (aqueous solution) is roughly 2%. This molecule also showed a half-life in “physchem” (chloroform) of roughly 1 h.
Turning to `CC1(C)Cc2c(-c3ccccc3)c(-c3ccc(Cl)cc3)c(CC(=O)NS(C)(=O)=O)n2C1` [Example 4], the IC50 was 230 nM at 5-lipoxygenase (LO) and 150 nM on cyclooxygenase (CO).

(Values after patent US5942535A, “[a]-Annelated pyrrole derivatives and pharmaceutical use thereof” (Merckle GmbH, priority 1994, dated 1999).)
